Test system: UPR pathway in CHO-K1 cell line expressing Ire1-1642G and Fv2E-PERK
Test: Drug-inducible UPR pathway activation, RT-qPCR of UPR gene mRNA transcripts
Format: cell-based, Chinese hamster
Conditions: CHO-K1 transfected with Ire1-1642G and Fv2E-PERK in combination; 1NM-PP1 0, 10 or 50 μM added 24 hours post-transfection
Experimental: In FIG. 12A drug-inducible activation of UPR pathway promotes ER expansion signaling pathways in a dosage-dependent manner. […] At 24 hours post-transfection, cells were treated with varying concentrations of 1NM-PP1 (0, 10, or 50 μM). mRNA transcripts of UPR genes were measured by RT-qPCR of unspliced Xbp1 (Xbp1u), spliced Xbp1 (Xbp1s), Chop, Gadd34, and Atf4. […]
Reverse transcription real-time quantitative polymerase chain reaction (RT-qPCR). […] Quantification was by standard ddCt method.
1NM-PP1 drug induction in CHO cells: Stable CHO cell lines expressing Ire1a 1642G or Fv2E-PERK alone or in combination were induced with 10 or 50 µM of 1NM-PP1. Gene expression measured by RT-qPCR was performed at 24h post-drug induction.
A drug inducible UPR activation pathway was constructed in a CHO-K1 cell line transfected with plasmid containing constitutive promoter expressing Ire1-1642G or Fv2E-PERK alone or in combination. At 24 hours post-transfection, cells were treated with varying concentrations of 1NM-PP1 (0, 10 or 50 μM). mRNA transcripts of UPR genes were measured by RT-qPCR of unspliced Xbp1 (Xbp1u), spliced Xbp1 (Xbp1s), Chop, Gadd34, and Atf4.

CC(C)(C)n1nc(Cc2cccc3ccccc23)c2c(N)ncnc21 [1NM-PP1]
mRNA transcripts of UPR genes Xbp1u, CHOP, Gadd34 and Atf4 (RT-qPCR): increased at higher concentrations
